# Data: US20100168038A1, “USE OF COMPOUNDS IN COMBINATION WITH GAMMA-IRRADIATION FOR THE TREATMENT OF CANCER” (priority 2006, published 2010)
# Experiments:
# Format in all cases: cell-based, mouse
# TPPII = assay: Western blotting of TPPII expression in gamma-irradiated EL-4 cells; details: wortmannin treated gamma-irradiated EL-4 cells, 25 micro-M NLVS
# Text: (§1) Cells and Culture Conditions. EL-4 is a Benzpyrene-induced lymphoma cell line derived from the C57BI/6 mouse strain. EL-4.wt and EL-4.TPPII^i are EL-4 cells transfected with the pSUPER vector (Brummelkamp, T R, Bernards, R, Agami, R. A system for stable expression of short interfering RNAs in mammalian cells. Science 2002; 296:550-3), empty versus containing the siRNA directed against TPPII. HeLa cells are human cervical carcinoma cells. YAC-1 is a Moloney Leukemia Virus-induced lymphoma cell line derived from the A/Sn mouse strain. ALC is a T cell lymphoma induced by radiation leukemia virus D-RadLV, derived from the C57Bl/6 mouse strain. […]
# (§2) Antibodies and Antisera. The following molecules were detected by the antibodies specified: Akt by rabbit anti-Akt serum (Cell Signaling Technology, Beverly, Mass.); Phospho-Akt (Ser 473) by 193H2 rabbit anti-phospho-Akt serum (Cell Signaling Technology, Beverly, Mass.); gamma-H2AX by rabbit anti-gamma-H2AX (Cell Signalling Technology, Beverly, Mass.); Mre11 by polyclonal rabbit anti-human Mre11 (Cell Signalling Technology, Beverly, Mass.); p21 by SX118 (R & D Systems, Minneapolis, Minn.); p53 (R & D Systems, Minneapolis, Minn.); Rae-1 by monoclonal Rat anti-mouse Rae-1, 199215 (R &D Systems, Minneapolis, Minn.); XIAP by monoclonal mouse anti-human XIAP, 117320 (R&D Systems, Minneapolis, Minn.). […]
# p53 [1] = assay: Western blotting of p53 expression in gamma-irradiated EL-4.TPPIIi cells; details: gamma-irradiated EL-4.TPPIIi cells treated with NLVS
# Text: as §1, §2
# p53 [2] = assay: Western blotting of p53-immunoprecipitates from EL-4 cell lysates; details: NLVS-treated EL-4.TPPIIi cells
# Text: Antibodies and Antisera. The following molecules were detected by the antibodies specified: Akt by rabbit anti-Akt serum (Cell Signaling Technology, Beverly, Mass.); Phospho-Akt (Ser 473) by 193H2 rabbit anti-phospho-Akt serum (Cell Signaling Technology, Beverly, Mass.); gamma-H2AX by rabbit anti-gamma-H2AX (Cell Signalling Technology, Beverly, Mass.); Mre11 by polyclonal rabbit anti-human Mre11 (Cell Signalling Technology, Beverly, Mass.); p21 by SX118 (R & D Systems, Minneapolis, Minn.); p53 (R & D Systems, Minneapolis, Minn.); Rae-1 by monoclonal Rat anti-mouse Rae-1, 199215 (R &D Systems, Minneapolis, Minn.); XIAP by monoclonal mouse anti-human XIAP, 117320 (R&D Systems, Minneapolis, Minn.). For detection of TPPII we used chicken anti-TPPII serum (Immunsystem, Uppsala, Sweden). Western blotting was performed by standard techniques. Protein concentration was measured by BCA Protein Assay Reagent (Pierce Chemical Co.). 5 micro-g of protein was loaded per lane for separation by SDS/PAGE unless stated otherwise.
compound,measurement,setting,value
"CC(C)C[C@@H](/C=C/S(C)(=O)=O)NC(=O)[C@H](CC(C)C)NC(=O)[C@H](CC(C)C)NC(=O)Cc1cc(I)c(O)c([N+](=O)[O-])c1 [NLVS, 4-hydroxy-5-iodo-3-nitrophenylacetyl-Leu-Leu-Leu-vinyl sulphone]",down regulation of TPPII,TPPII,inhibited down regulation of TPPII
same,p53 expression,p53 [1],increased p53 expression
same,"ATM, 53BP1 and Mre11 in p53-immunoprecipitates",p53 [2],"failed to show ATM, 53BP1 and Mre11"
